For this data set, the system named is dexamethasone administered rat. Briefly: Muscular atrophy prophylactic effect of BCAA in dexamethasone administered rat (Example 1). The settings on record: effect of dexamethasone administration itself, 600 μg/kg i.p. 5 days. Type of data set: in vivo. Here is the method: Dexamethasone (600 μg/kg) was intraperitoneally administered to rats (SD; 10-11-week-old) for 5 consecutive days. An isoleucine, leucine and valine (weight ratio 1:2:1.2) blend (BCAA) administration group was orally administered with 0.75 g/kg of BCAA above simultaneously for 5 consecutive days. A vehicle group was orally administered with distilled water consecutively in the same manner.
On day 5, the rats were autopsied and analyzed for muscular strength function evaluation, blood glucose level and plasma insulin level using a feed intake, body weight profile, muscle weight, grip strength measurement apparatus.
As the control group, pair-feeding normal rats were used.

Take `C[C@@H]1C[C@H]2[C@@H]3CCC4=CC(=O)C=C[C@]4(C)[C@@]3(F)[C@@H](O)C[C@]2(C)[C@@]1(O)C(=O)CO` [dexamethasone]: the blood glucose level result (SD rats (FIG. 4)) is “increased”. Further, the insulin level entry (SD rats (FIG. 5)) is listed as “increased”.

Values taken from patent US20090291928A1, “COMPOSITION FOR AMELIORATION/PREVENTION OF ADVERSE SIDE EFFECT IN STEROID THERAPY” (AJINOMOTO CO., INC., priority 2006, published 2009).
